Several values for one entry are separate records, joined by “and”; a condition that tells them apart may be missing. Equal entries are not always repeated. Structures can show the parent of a compound that is named as a salt.
Assay: Pharmacokinetic study in humans, sodium salt in enteric capsules, single and multiple dose (Example 2)
Type: in vivo, human
Procedure: An open, randomised, parallel-group study in healthy volunteers (hereafter referred to as subjects) was conducted to evaluate the exposure of 4-chloro-N-[2-[(4-chlorophenyl)methyl]-3-oxo-1,2,4-thiadiazol-5-yl]benzamide after single and multiple dose administration of 3 dose levels of the sodium salt of 4-chloro-N-[2-[(4-chlorophenyl)methyl]-3-oxo-1,2,4-thiadiazol-5-yl]benzamide and to evaluate combination with dapagliflozin at steady state.
For the study, Vcaps enteric capsules, size 0, were individually filled with 200 mg of milled test material together with 2 mg of sodium docusate, 125 mg of mannitol and 6.5 mg of sodium lauryl sulfate. […]
A screening visit (Visit 1) was performed within 28 days before randomisation and the start of IMP administration. The subjects were confined to the research clinic from the evening before Day 1 (Visit 2; Day—1). […]
Pre-dose safety assessments as well as pre- and post-dose PK assessments were performed. The subjects left the clinic after the last PK-sample on Day 1 and returned for a 24 h PK sample and dosing on Day 2 (Visit 3).
Subjects self-administered the test material at home from Day 3 to Day 15. A telephone visit to check compliance, AE status and use of concomitant medications will be performed on Day 8 (Visit 4).
The subjects returned to the clinic on Days 16 and 17 (Visits 5 and 6), for PK sampling and AE assessment. Visit 6 continued in the evening of Day 17, when the subjects were confined to the clinic until Day 18. On Day 18, pre- and post-dose PK and safety assessments were performed. The subjects left the clinic after the last PK sample on Day 18 and returned for a 24 h PK sample and dosing on Day 19 (Visit 7).
On Day 19 (Visit 7) subjects began co-administration of the test material and dapagliflozin (Forxiga), 10 mg per day for 7 days (Day 19 to Day 25). The subjects returned to the clinic on Day 25 (Visit 8) for final dosing, PK and safety assessments. A final end-of-study visit (Visit 9) for follow-up of safety assessments was conducted 28 days (+14 days) after Visit 8 or after early withdrawal.
Venous blood samples (approximately 5 mL) for the determination of plasma concentrations of 4-chloro-N-[2-[(4-chlorophenyl)methyl]-3-oxo-1,2,4-thiadiazol-5-yl]benzamide after administration of the test material were collected through an indwelling venous catheter on Days 1, 2, 16 to 19 and 25.
The blood samples were collected in pre-labelled Li-Heparin tubes. All the collected blood samples were be centrifuged at 1500 G for 10 minutes to separate plasma within 60 minutes from the sample is drawn. The separated plasma from each blood sample was be divided into 2 aliquots in pre-labelled polypropylene cryotubes (A and B samples, approximately 750 μL in each tube) and frozen at <−70° C. On Day 25, the plasma was divided in to 3 aliquots of at least 500 μL (A and B samples for the test material, and 1 sample for potential future analysis of dapagliflozin).
Samples for determination of plasma concentrations of 4-chloro-N[2-[(4-chlorophenyl)methyl]-3-oxo-1,2,4-thiadiazol-5-yl]benzamide were analysed by Lablytica Life Science AB, Uppsala, Sweden by means of a validated LS-MS/MS method.
The data of plasma concentration to respective time points for the analyte (4-chloro-N-[2-[(4-chlorophenyl)methyl]-3-oxo-1,2,4-thiadiazol-5-yl]benzamide) were used for the pharmacokinetic analysis. Pharmacokinetic analysis was performed using non-compartmental analysis (NCA) module of Phoenix WinNonlin 8.1 software to determine the following pharmacokinetic parameters.
After single dose administration of test material: • AUC0-24, Cmax, Tmax and dose proportionality (based on AUC0-24 and Cmax) (secondary endpoints). […]

[1] = 400 mg Dose Group, capsules once daily, Day 18, Geometric Mean
[2] = 400 mg Dose Group, capsules once daily, Day 18, Mean
[3] = 400 mg Dose Group, capsules once daily, Day 18, Median
[4] = 400 mg Dose Group, capsules once daily, Day 18, individual subjects, listed as test material
[5] = 800 mg Dose Group, capsules once daily, Day 18, Geometric Mean
[6] = 800 mg Dose Group, capsules once daily, Day 18, Mean
[7] = 800 mg Dose Group, capsules once daily, Day 18, Median
[8] = 800 mg Dose Group, capsules once daily, Day 18, individual subjects, listed as test material
[9] = 2000 mg Dose Group, capsule once daily, Day 18, Geometric Mean
[10] = 2000 mg Dose Group, capsule once daily, Day 18, Mean
[11] = 2000 mg Dose Group, capsule once daily, Day 18, Median
[12] = 2000 mg Dose Group, capsule once daily, Day 18, individual subjects, listed as test material
[13] = capsule once daily, Day 18, individual subjects, listed as test material
[14] = dose-normalised, 400 mg Dose Group, capsules once daily, Day 18, Geometric Mean
[15] = dose-normalised, 400 mg Dose Group, capsules once daily, Day 18, Mean
[16] = dose-normalised, 400 mg Dose Group, capsules once daily, Day 18, Median
[17] = dose-normalised, 400 mg Dose Group, capsules once daily, Day 18, individual subjects, listed as test material
[18] = dose-normalised, 800 mg Dose Group, capsules once daily, Day 18, Geometric Mean
[19] = dose-normalised, 800 mg Dose Group, capsules once daily, Day 18, Mean
[20] = dose-normalised, 800 mg Dose Group, capsules once daily, Day 18, Median
[21] = dose-normalised, 800 mg Dose Group, capsules once daily, Day 18, individual subjects, listed as test material
[22] = dose-normalised, 2000 mg Dose Group, capsule once daily, Day 18, Geometric Mean

## O=C(Nc1nc(=O)n(Cc2ccc(Cl)cc2)s1)c1ccc(Cl)cc1 [Compound of formula II, sodium salt of 4-chloro-N-[2-[(4-chlorophenyl)methyl]-3-oxo-1,2,4-thiadiazol-5-yl]benzamide]
200 mg of the sodium salt
  increase in systemic exposure compared to a standard suspension of the active ingredient: up to five-fold
[1]
  CLss_F: 267.1 mL/h
  Clast: 62.75 µg/mL
  Tlast: 23.93 h
[2]
  CLss_F: 271.8 mL/h
  Clast: 64.03 µg/mL
  Tlast: 23.93 h
[3]
  CLss_F: 286.3 mL/h
  Clast: 60.9 µg/mL
  Tlast: 23.93 h
[4]
  AUC_TAU: 1300 µg·h/mL and 1750 µg·h/mL and 1480 µg·h/mL and 1320 µg·h/mL and 2100 µg·h/mL
  AUClast: 1290 µg·h/mL and 1740 µg·h/mL and 1480 µg·h/mL and 1320 µg·h/mL and 2090 µg·h/mL and 1650 µg·h/mL
  CLss_F: 330 mL/h and 308 mL/h and 229 mL/h and 270 mL/h and 303 mL/h and 191 mL/h
  Clast: 54.7 µg/mL and 50.4 µg/mL and 73.2 µg/mL and 60.9 µg/mL and 49.2 µg/mL and 86.9 µg/mL and 72.9 µg/mL
  Tlast: 23.9 h (6×) and 24 h
  Tmax: 12 h and 2 h and 3 h and 0.25 h and 23.9 h
[5]
  CLss_F: 316.5 mL/h
  Tlast: 23.92 h
[6]
  CLss_F: 321.8 mL/h
  Tlast: 23.92 h
[7]
  CLss_F: 292.8 mL/h
  Tlast: 23.92 h
800 mg Dose Group, capsules once daily, Day 18, individual subjects
  Tlast: 23.9 h
[8]
  AUC_TAU: 2500 µg·h/mL and 2910 µg·h/mL and 2730 µg·h/mL and 2870 µg·h/mL
  AUClast: 2490 µg·h/mL and 2900 µg·h/mL and 2620 µg·h/mL and 2980 µg·h/mL and 2720 µg·h/mL and 2580 µg·h/mL and 2860 µg·h/mL
  CLss_F: 442 mL/h and 321 mL/h and 275 mL/h and 293 mL/h and 279 mL/h
  Clast: 98 μg/ml and 120 μg/ml and 115 μg/ml (2×) and 127 μg/ml and 110 μg/ml and 117 μg/ml
  Cmax: 118 µg/mL and 127 µg/mL and 115 µg/mL and 130 µg/mL and 126 µg/mL and 117 µg/mL and 128 µg/mL
  Tmax: 9.98 h and 0 h and 23.9 h and 10 h and 6 h
[9]
  CLss_F: 202.7 mL/h
  Clast: 42.19 µg/mL
  Tlast: 23.92 h
[10]
  CLss_F: 207.9 mL/h
  Tlast: 23.92 h
[11]
  CLss_F: 210.5 mL/h
  Clast: 38.7 µg/mL
  Tlast: 23.92 h
[12]
  AUC_TAU: 1130 µg·h/mL and 841 µg·h/mL and 1600 µg·h/mL and 802 µg·h/mL and 950 µg·h/mL and 774 µg·h/mL and 1010 µg·h/mL
  CLss_F: 176 mL/h and 238 mL/h and 125 mL/h and 249 mL/h and 210 mL/h and 259 mL/h and 198 mL/h
  Tmax: 0.267 h and 23.9 h and 0 h and 10 h and 12 h
Capsule once daily, Day 18, individual subjects
  Tlast: 23.9 h
[13]
  AUClast: 1130 µg·h/mL and 1400 µg·h/mL and 838 µg·h/mL and 1600 µg·h/mL and 800 µg·h/mL and 947 µg·h/mL and 772 µg·h/mL and 1010 µg·h/mL
  Clast: 47 µg/mL and 62 µg/mL and 33.5 µg/mL and 68 µg/mL and 33.3 µg/mL and 36.7 µg/mL and 30.4 µg/mL and 40.7 µg/mL
  Cmax: 52.1 µg/mL and 62 µg/mL and 42 µg/mL and 71.9 µg/mL and 40.2 µg/mL and 46.2 µg/mL and 34.6 µg/mL and 49.9 µg/mL
capsules, 200-800 mg once daily
  accumulation in the blood plasma after repeat dosing: substantial accumulation
[14]
  AUC_TAU_D: 3.744 µg·h/mL/mg
  AUClast_D: 3.788 µg·h/mL/mg
  Cmax_D: 0.1741 µg/mL/mg
[15]
  AUC_TAU_D: 3.816 µg·h/mL/mg
  AUClast_D: 3.852 µg·h/mL/mg
  Cmax_D: 0.1769 µg/mL/mg
[16]
  AUC_TAU_D: 3.504 µg·h/mL/mg
  AUClast_D: 3.703 µg·h/mL/mg
  Cmax_D: 0.1653 µg/mL/mg
[17]
  AUC_TAU_D: 3.03 µg·h/mL/mg and 3.24 µg·h/mL/mg and 4.37 µg·h/mL/mg and 3.71 µg·h/mL/mg and 3.3 µg·h/mL/mg and 5.24 µg·h/mL/mg
  AUClast_D: 3.02 µg·h/mL/mg and 3.23 µg·h/mL/mg and 4.36 µg·h/mL/mg and 3.7 µg·h/mL/mg and 3.29 µg·h/mL/mg and 5.23 µg·h/mL/mg and 4.13 µg·h/mL/mg
  Cmax_D: 0.141 µg/mL/mg and 0.15 µg/mL/mg and 0.193 µg/mL/mg and 0.165 µg/mL/mg and 0.161 µg/mL/mg and 0.248 µg/mL/mg and 0.182 µg/mL/mg
[18]
  AUC_TAU_D: 3.159 µg·h/mL/mg
  AUClast_D: 3.24 µg·h/mL/mg
  Cmax_D: 0.1472 µg/mL/mg
[19]
  AUC_TAU_D: 3.205 µg·h/mL/mg
  AUClast_D: 3.274 µg·h/mL/mg
  Cmax_D: 0.1482 µg/mL/mg
[20]
  AUC_TAU_D: 3.416 µg·h/mL/mg
  AUClast_D: 3.337 µg·h/mL/mg
  Cmax_D: 0.1525 µg/mL/mg
[21]
  AUC_TAU_D: 2.26 µg·h/mL/mg and 3.12 µg·h/mL/mg and 3.64 µg·h/mL/mg and 3.27 µg·h/mL/mg and 3.42 µg·h/mL/mg and 3.59 µg·h/mL/mg
  AUClast_D: 2.25 µg·h/mL/mg and 3.11 µg·h/mL/mg and 3.63 µg·h/mL/mg and 144 µg·h/mL/mg and 3.73 µg·h/mL/mg and 3.4 µg·h/mL/mg and 3.22 µg·h/mL/mg and 3.58 µg·h/mL/mg
  Cmax_D: 0.109 µg/mL/mg and 0.148 µg/mL/mg and 0.159 µg/mL/mg and 0 µg/mL/mg and 0.163 µg/mL/mg and 0.158 µg/mL/mg and 0.146 µg/mL/mg and 0.16 µg/mL/mg
[22]
  AUC_TAU_D: 4.934 µg·h/mL/mg
  AUClast_D: 5.139 µg·h/mL/mg
  Cmax D: 0.2432 µg/mL/mg
dose-normalised, 2000 mg Dose Group, capsule once daily, Day 18, Mean
  AUC_TAU_D: 5.082 µg·h/mL/mg
